Reference: patent publication US10792365B2, “Peptide derivative and use thereof” (Toray Industries, Inc., priority 2016, dated 2020)
Counter-ions that a name gives are not always drawn. Like-named read-outs stand apart in the source and are kept apart here.

Key:
[1] = Parallel Artificial Membrane Permeation Assay (PAMPA), Pre-coated PAMPA Plate System (Corning); conditions: for Membrane Permeability Coefficient: 200 μmol/L in PBS containing 20% of methanol, room temperature, five hours, N.D. = Acceptor side concentration less than lower limit of determinate quantity
Method: Reference Example 14, the Compound of Reference Example 16, and the Compound of Comparative Example was Evaluated by Using Pre-Coated PAMPA PlateSystem (Corning)
A frozen-stored, Pre-coated PAMPA Plate System was allowed to stand at room temperature for thirty minutes or more. Subsequently, 320 μL of the standard solution was added to a Donor side plate of Pre-coated PAMPA Plate System, and 200 μL of the PBS containing 20% of methanol was added to an Acceptor side plate. Both of the plates were set for the system, and the plates allowed to stand at room temperature for five hours. The reaction liquid in each well of the Donor side and Acceptor side plates was subjected to LC/MS analysis (hereinafter, LC/MS-3), and the concentration of the compounds in each well calculated.
Using the obtained concentration of the compounds in the reaction liquid in each well, the membrane permeability coefficients (Pe) (cm/s) were calculated by the following formula: Cequilibrium=[…] Pe=[−ln(1−CA/Cequilibrium)]/S×(1/VD+1/VA)×t Cequilibrium: Equilibrium concentration of the wells in the Donor side and Acceptor side plates CD: Concentration after five hours of the wells in the Donor side plate (mmol/L) VD: Volume of the standard solution added to the wells in the Donor side plate (0.32 mL) CA: Concentration after five hours of the wells in the Acceptor side plate (mmol/L) VA: Volume of the PBS containing 20% of methanol added to the wells in the Acceptor side plate (0.2 mL) S: Surface of the membrane (0.3 cm^2) t: Standing time 18,000 s (=5 hrs).

SKOV-3 cells = assay: In vitro cytotoxicity of the peptide derivative (I), MTS method, SKOV-3 cells; type: cell-based, human
Text: (§1) The cytotoxicity of the peptide derivative (I) or a pharmaceutically acceptable salt thereof, or the conjugate including the peptide derivative (I) or a pharmaceutically acceptable salt thereof can be evaluated with an in vitro study. Examples of the in vitro studies include the trypan blue dye exclusion method, the lactate dehydrogenase (LDH) activity assay, [^3H]thymidine incorporation method, or propidium iodide nuclear stain that each measures the number of dead cells or surviving cells post treated with the compound; a method using dyes such as MTT, MTS, and WST (Current Protocol in Toxicology, (2000), 2.6.1-2.6.27); or a method in which the amount of ATP is measured using CellTiter-Glow (Promega Corporation) and the like, and preferably include the method in which the number of surviving cells post treated with the compound is measured by using the MTS method to determine values of the cytotoxicity at that time from 50% effect-concentration (EC50). Furthermore, in the evaluation of the cytotoxicity of the conjugate including the peptide derivative (I) or a pharmaceutically acceptable salt thereof, preferred method is the one that for a certain time, cells are treated with a medium containing the compound, the cells are then transferred to a medium not containing the compound, and the number of surviving cells are measured after cultivation for additional certain time (Bioconjugate Chemistry., 2014; 25: pp. 560-568). For the in vitro studies, human ovarian cancer cell SKOV-3 cells, human alveolar basement epithelial gland cancer cell A549 cells, mouse lymphocytic leukocyte L1210 cells and the like are used.

A549 cells = assay: In vitro cytotoxicity of the peptide derivative (I), MTS method, A549 cells; type: cell-based, human
Text: as §1

L1210 cells = assay: In vitro cytotoxicity of the peptide derivative (I), MTS method, L1210 cells; type: cell-based, mouse
Text: as §1

Row | SMILES | Membrane Permeability Coefficient [1] | EC50 (SKOV-3 cells) | EC50 (A549 cells) | EC50 (L1210 cells) | Papp at 5 h, 200 μmol/L [1] | EC50 (SKOV-3 cells; Homo sapiens, SK-OV-3) | EC50 (A549 cells; Homo sapiens) | EC50 (L1210 cells; Mus musculus)
1 | CCNC(=O)c1csc([C@H](Cc2ccccc2)NC(=O)[C@@H](C)[C@@H](OC)[C@@H]2CCCN2C(=O)C[C@@H](OC)[C@H]([C@@H](C)CC)N(C)C(=O)[C@@H](NC(=O)[C@H](C(C)C)N(C)C)C(C)C)n1 [Comparative Example, reference compound] | 1.68 10^−6 cm/s | 0.55 nM | 0.74 nM | 6.51 nM |  |  |  | 
2 | CC[C@H](C)[C@@H]([C@@H](CC(=O)N1CCC[C@H]1[C@H](OC)[C@@H](C)C(=O)N[C@@H](Cc1ccccc1)c1nc(C(=O)NCCS)cs1)OC)N(C)C(=O)[C@@H](NC(=O)[C@H](C(C)C)N(C)C)C(C)C [Example 1] |  |  |  |  | 1.15 ×10⁻⁶ cm/s | 0.44 nM | 1.93 nM | 31.4 nM
3 | CC[C@H](C)[C@@H]([C@@H](CC(=O)N1CCC[C@H]1[C@H](OC)[C@@H](C)C(=O)N[C@@H](Cc1ccccc1)c1nc(C(=O)OCCS)cs1)OC)N(C)C(=O)[C@@H](NC(=O)[C@H](C(C)C)N(C)C)C(C)C [Example 2, 2-mercaptoethyl 2-((S)-1-((2R,3R)-3-((S)-1-((3R,4S,5S)-4-((S)-2-((S)-2-(dimethylamino)-3-methylbutanamido)-N,3-dimethylbutanamido)-3-methoxy-5-methylheptanoyl)pyrrolidin-2-yl)-3-methoxy-2-methylpropanamido)-2-phenylethyl)thiazole-4-carboxylate] |  |  |  |  | 0.005 ×10⁻⁶ cm/s | 0.13 nM | 6.88 nM | 14.2 nM
4 | CC[C@H](C)[C@@H]([C@@H](CC(=O)N1CCC[C@H]1[C@H](OC)[C@@H](C)C(=O)N[C@@H](Cc1ccccc1)c1nc(C(=O)N(C)CCS)cs1)OC)N(C)C(=O)[C@@H](NC(=O)[C@H](C(C)C)N(C)C)C(C)C [Example 3] |  |  |  |  | 1.14 ×10⁻⁶ cm/s | 1.05 nM | 1.22 nM | 6.96 nM
5 | CC[C@H](C)[C@@H]([C@@H](CC(=O)N1CCC[C@H]1[C@H](OC)[C@@H](C)C(=O)N[C@@H](Cc1ccccc1)c1nc(C(=O)OCCN)cs1)OC)N(C)C(=O)[C@@H](NC(=O)[C@H](C(C)C)N(C)C)C(C)C [Example 4] |  |  |  |  | 0.01 ×10⁻⁶ cm/s | 0.85 nM | 0.83 nM | 28.7 nM
6 | CC[C@H](C)[C@@H]([C@@H](CC(=O)N1CCC[C@H]1[C@H](OC)[C@@H](C)C(=O)N[C@@H](Cc1ccccc1)c1nc(C(=O)N(C)CCN)cs1)OC)N(C)C(=O)[C@@H](NC(=O)[C@H](C(C)C)N(C)C)C(C)C [Example 5, N-(2-aminoethyl)-2-((S)-1-((2R,3R)-3-((S)-1-((3R,4S,5S)-4-((S)-2-((S)-2-(dimethylamino)-3-methylbutanamido)-N,3-dimethylbutanamido)-3-methoxy-5-methylheptanoyl)pyrrolidin-2-yl)-3-methoxy-2-methylpropanamido)-2-phenylethyl)-N-methylthiazole-4-carboxamide dihydro chloride] |  |  |  |  | 0.01 ×10⁻⁶ cm/s | 0.56 nM | 0.81 nM | 11.7 nM
7 | CC[C@H](C)[C@@H]([C@@H](CC(=O)N1CCC[C@H]1[C@H](OC)[C@@H](C)C(=O)N[C@@H](Cc1ccccc1)c1nc(C(=O)N(C)CCNC)cs1)OC)N(C)C(=O)[C@@H](NC(=O)[C@H](C(C)C)N(C)C)C(C)C [Example 6, 2-((S)-1-((2R,3R)-3-((S)-1-((3R,4S,5S)-4-((S)-2-((S)-2-(dimethylamino)-3-methylbutanamido)-N,3-dimethylbutanamido)-3-methoxy-5-methylheptanoyl)pyrrolidin-2-yl)-3-methoxy-2-methylpropanamido)-2-phenylethyl)-N-methyl-N-(2-(methylamine)ethyl)thiazole-4-carboxamide dihydrochloride] |  |  |  |  |  | 0.22 nM | 1.94 nM | 17.2 nM
8 | CC[C@H](C)[C@@H]([C@@H](CC(=O)N1CCC[C@H]1[C@H](OC)[C@@H](C)C(=O)N[C@@H](Cc1ccccc1)c1nc(C(=O)NCCO)cs1)OC)N(C)C(=O)[C@@H](NC(=O)[C@H](C(C)C)N(C)C)C(C)C [Example 7] |  |  |  |  | 0.02 ×10⁻⁶ cm/s | 4.67 nM | 1.74 nM | 28.4 nM
9 | CC[C@H](C)[C@@H]([C@@H](CC(=O)N1CCC[C@H]1[C@H](OC)[C@@H](C)C(=O)N[C@@H](Cc1ccccc1)c1nc(C(=O)OCCO)cs1)OC)N(C)C(=O)[C@@H](NC(=O)[C@H](C(C)C)N(C)C)C(C)C [Example 8, 2-hydroxyethyl 2-((S)-1-((2R,3R)-3-((S)-1-((3R,4S,5S)-4-((S)-2-((S)-2-(dimethylamino)-3-methylbutanamido)-N,3-dimethylbutanamido)-3-methoxy-5-methylheptanoyl)pyrrolidin-2-yl)-3-methoxy-2-methylpropanamido)-2-phenylethyl)thiazole-4-carboxylate] |  |  |  |  | 0.04 ×10⁻⁶ cm/s | 0.09 nM | 1.75 nM | 4.74 nM
10 | CC[C@H](C)[C@@H]([C@@H](CC(=O)N1CCC[C@H]1[C@H](OC)[C@@H](C)C(=O)N[C@@H](Cc1ccccc1)c1nc(C(=O)N(C)CCO)cs1)OC)N(C)C(=O)[C@@H](NC(=O)[C@H](C(C)C)N(C)C)C(C)C [Example 9] |  |  |  |  | 0.08 ×10⁻⁶ cm/s | 1.5 nM | 1.64 nM | 8.52 nM
11 | CC[C@H](C)[C@@H]([C@@H](CC(=O)N1CCC[C@H]1[C@H](OC)[C@@H](C)C(=O)N[C@@H](Cc1ccccc1)c1nc(C(=O)NCCc2ccc(N)cc2)cs1)OC)N(C)C(=O)[C@@H](NC(=O)[C@H](C(C)C)N(C)C)C(C)C [Example 10] |  |  |  |  | 0.3 ×10⁻⁶ cm/s | 0.27 nM | 1.08 nM | 4.05 nM
12 | CC[C@H](C)[C@@H]([C@@H](CC(=O)N1CCC[C@H]1[C@H](OC)[C@@H](C)C(=O)N[C@@H](Cc1ccccc1)c1nc(C(=O)NCCc2ccc(O)cc2)cs1)OC)N(C)C(=O)[C@@H](NC(=O)[C@H](C(C)C)N(C)C)C(C)C [Example 11, 2-((S)-1-((2R,3R)-3-((S)-1-((3R,4S,5S)-4-((S)-2-((S)-2-(dimethylamino)-3-methylbutanamido)-N,3-dimethylbutanamido)-3-methoxy-5-methylheptanoyl)pyrrolidin-2-yl)-3-methoxy-2-methylpropanamido)-2-phenylethyl)-N-(4-hydroxyphenethyl)thiazole-4-carboxamide] |  |  |  |  | 0.36 ×10⁻⁶ cm/s | 0.37 nM | 1.31 nM | 5.61 nM
13 | CC[C@H](C)[C@@H]([C@@H](CC(=O)N1CCC[C@H]1[C@H](OC)[C@@H](C)C(=O)N[C@@H](Cc1ccccc1)c1nc(C(=O)O)cs1)OC)N(C)C(=O)[C@@H](NC(=O)[C@H](C(C)C)N(C)C)C(C)C [Reference Example 1, 2-((S)-1-((2R,3R)-3-((S)-1-((3R,4S,5S)-4-((S)-2-((S)-2-(dimethylamino)-3-methylbutanamido)-N,3-dimethylbutanamido)-3-methoxy-5-methylheptanoyl)pyrrolidin-2-yl)-3-methoxy-2-methylpropanamido)-2-phenylethyl)thiazole-4-carboxylic acid, reference compound] | 0.01 10^−6 cm/s |  |  |  |  | > 10 nM | > 10 nM | > 50 nM
14 | CC[C@H](C)[C@@H]([C@@H](CC(=O)N1CCC[C@H]1[C@H](OC)[C@@H](C)C(=O)N[C@@H](Cc1ccccc1)c1nc(C(=O)NCCNC(=O)CCS)cs1)OC)N(C)C(=O)[C@@H](NC(=O)[C@H](C(C)C)N(C)C)C(C)C [Reference Example 16, reference compound] |  |  |  |  |  | > 10 nM | > 10 nM | > 50 nM
